Data on four molecules can be found in PMC5050390, “Transport of Corilagin, Gallic Acid, and Ellagic Acid from Fructus Phyllanthi Tannin Fraction in Caco-2 Cell Monolayers” (Evidence-based Complementary and Alternative Medicine : eCAM, 2016).

By Papp A→B is commonly meant the apparent permeability from the apical to the basolateral side of a cell layer. Broadly, the Papp B→A is the apparent permeability from the basolateral to the apical side of a cell layer.

One data set relates to Caco-2 cell monolayers. Description: Transport of PTF constituents across Caco-2 cell monolayers (LC-MS quantification). The format is in vitro ADME, human. Details: efflux ratio at 180 min / Papp A→B at 180 min: dose or concentration left out as unconfirmed. The settings on record: for change of transport with tight junction modulators SDS and PLL: SDS and PLL 50 μg/mL; for PDR (ratio of P app BL→AP to P app AP→BL): compound in PTF 1.00 mg/mL; for change of transport (P app) in presence of indomethacin: indomethacin 10 μM (MRPs/OATP inhibitor); for change of transport (P app) in presence of indomethacin / change of transport (P app) in presence of phloridzin / change of transport (P app) in presence of verapamil: PTF 1.00 mg/mL, 120 min; for change of transport (P app) in presence of phloridzin: phloridzin 50 μM (SGLT1 inhibitor); for change of transport (P app) in presence of verapamil: verapamil 100 μM (P-gp inhibitor). The procedure: (§1) When cells were cultured to 80% confluence, they were seeded in 12-well Transwell-Clear plates at a density of 1.2 × 10^5 cells/insert. Cells were cultured for 21 days to reach confluence and functional differentiation. Complete medium was replaced every 2 days for the first 2 weeks and daily renewed for the last 7 days. All cells were between passages 35 and 55. […] After 21-day culture, the complete medium was removed and the monolayer was washed three times and balanced with HBSS (previously warmed to 37°C) for 30 min. […] […] All samples were dried with organomation. Before analyzing, the dry samples were dissolved in methanol/water/acetic acid (200 : 200 : 1, v/v/v) and the insoluble substance was eliminated with centrifugation 12000 rpm for 5 min. Protein inhibitors including verapamil (100 μM), indomethacin (10 μM), and phloridzin (50 μM) were employed to investigate the role of different transporters. Epithelial tight junction modulators such as SDS (50 μg/mL) and PLL (50 μg/mL) were used to evaluate the role of paracellular permeability. Hydrophilic marker sodium fluorescein (0.6 mg/mL) was used for the evaluation of the integrity of the cell monolayer. […] The column temperature was 20°C and the injection volume was 20 μL. MS/MS analysis was acquired using an Agilent 6410 triple quadrupole mass spectrometer (Agilent Technologies, CA, USA) equipped with an electrospray ionisation (ESI) in the negative mode. Other analytical conditions included the drying gas temperature of 300°C, the drying gas flow of 11 L/min, the nebulizer pressure of 35 psi, and the capillary voltage of 4 kV. To get the highest abundance, the fragmentor voltage and collision energy were optimized. Data acquisition and processing were accepted by Agilent Mass Hunter workstation software version B.05.00 using multiple reaction monitoring (MRM). The quantification was performed using external standard method. […] Here, dC/dt is the change in concentration on the receiver side over time; V is the volume of the solution in the receiver chamber; A is the surface area of the cell monolayer; C 0 is the initial concentration in the donor chamber. PDR is the ratio of P app(BL→AP) to P app(AP→BL).

Experiment in data set [1]: as above
Further details: efflux ratio at 180 min / Papp A→B at 180 min: dose or concentration left out as unconfirmed. The settings on record: human, Caco-2, 180 min; for efflux ratio at 180 min: read-out: PDR (ratio of P app BL→AP to P app AP→BL). The format is in vitro ADME, human. The procedure:
as §1
Background: Caco-2 monolayers are a common model of the intestinal barrier.

Details of data set [2]: method as in earlier work. The settings on record: rats, oral PTF 6 g/kg; cited from earlier work.
The test system of a further data set is Caco-2 cell monolayer. Further details: method as in PMID 14646189. The settings on record: pure compound; cited from earlier work.
The mark [3] stands for this setting: compound in PTF 1.00 mg/mL, mean ± SEM (n = 3).

As for `O=C(O[C@@H]1O[C@@H]2COC(=O)c3cc(O)c(O)c(O)c3-c3c(cc(O)c(O)c3O)C(=O)O[C@H]([C@H]1O)[C@@H]2O)c1cc(O)c(O)c(O)c1` [Corilagin], in the data set with Caco-2 cell monolayers, the “change of transport with tight junction modulators SDS and PLL” value was “greatly improved”; the “change of transport (P app) in presence of indomethacin” value was “significantly increased”; the “change of transport (P app) in presence of phloridzin” value is on record as “no considerable change”; the “change of transport (P app) in presence of verapamil” value is “significantly increased”. Also, the “PDR (ratio of P app BL→AP to P app AP→BL)” value in the data set with Caco-2 cell monolayers (180 min) is “more than 1.5”. In the data set with Caco-2 cell monolayers (human, Caco-2, 180 min), the “secretion transport P app (BL→AP)” value was ~10^−6 cm/s. For the same molecule, the efflux ratio at 180 min in data set [1] stood at 12.5. Further, in data set [1] (setting [3]), the Papp A→B at 180 min, 1 mg/mL came to 0.174 ± 0.019 ×10⁻⁶ cm/s and the Papp B→A at 180 min was determined as 2.18 ± 0.228 ×10⁻⁶ cm/s. In addition, the “peak concentration (C max)” value in data set [2] was “lower than 10.47 μg/mL”.

In the case of `O=c1oc2c(O)c(O)cc3c(=O)oc4c(O)c(O)cc1c4c23` [Ellagic acid], in the data set on Caco-2 cell monolayers, the “change of transport with tight junction modulators SDS and PLL” value is given as “greatly improved”; the “change of transport (P app) in presence of indomethacin” value is reported as “strongly decreased”; the “change of transport (P app) in presence of phloridzin” value is “strongly decreased”; the “change of transport (P app) in presence of verapamil” value is on record as “no substantial difference”. Further, in the data set with Caco-2 cell monolayers (compound in PTF), the “absorption transport P app (AP→BL)” value was ~10^−7 cm/s and the “secretion transport P app (BL→AP)” value was ~10^−7 cm/s. Also, in the data set with Caco-2 cell monolayers (180 min), the “PDR (ratio of P app BL→AP to P app AP→BL)” value is “less than 1.5”. Further, in data set [1] (mean ± SEM (n = 3)), the Papp A→B at 180 min was found to be 0.347 ± 0.018 ×10⁻⁶ cm/s. The efflux ratio at 180 min in data set [1] amounted to 1.31. The apparent permeability from basolateral to apical (Papp B→A) at 180 min in data set [1] (setting [3]) came out at 0.456 ± 0.01 ×10⁻⁶ cm/s. The “peak concentration (C max)” value in data set [2] is on record as “lower than 10.47 μg/mL”.

For `O=C(O)c1cc(O)c(O)c(O)c1` [Gallic acid], in the data set on Caco-2 cell monolayers, the “change of transport with tight junction modulators SDS and PLL” value is “greatly improved”; the “change of transport (P app) in presence of indomethacin” value is recorded as “significantly increased”; the “change of transport (P app) in presence of phloridzin” value was “no considerable change”; the “change of transport (P app) in presence of verapamil” value is listed as “significantly increased”. Also, in the data set with Caco-2 cell monolayers (compound in PTF), the “secretion transport P app (BL→AP)” value is given as ~10^−7 cm/s. Further, the “PDR (ratio of P app BL→AP to P app AP→BL)” value in the data set on Caco-2 cell monolayers (180 min) is recorded as “more than 1.5”. The Papp A→B at 180 min in data set [1] (mean ± SEM (n = 3)) is 0.024 ± 0.004 ×10⁻⁶ cm/s. For the same molecule, the efflux ratio at 180 min in data set [1] was 4.17. The Papp B→A at 180 min in data set [1] (setting [3]) was found to be 0.1 ± 0.009 ×10⁻⁶ cm/s. For the same molecule, in the data set on Caco-2 cell monolayer, the “P app of GA across Caco-2 cell monolayer” value was “about 0.20 × 10^−6 cm/s”. For the same molecule, the “peak concentration (C max)” value in data set [2] is “lower than 10.47 μg/mL”.

Consider `O=C([O-])c1ccccc1-c1c2ccc(=O)cc-2oc2cc([O-])ccc12.[Na+].[Na+]` [sodium fluorescein, reference compound], for which the “P app of marker across the monolayers” value in the data set on Caco-2 cell monolayers (sodium fluorescein 0.6 mg/mL, monolayer integrity check) is recorded as 3.16 ± 0.25 × 10^−7 cm/s.
